From US8088815B2, “Spiroindolinone pyrrolidines” (Hoffman-La Roche Inc., priority 2009, dated 2012) come the findings set out here.

In this experiment the target is interaction between p53 and MDM2 proteins (Homo sapiens, UniProt Q00987). The experiment in a line: HTRF assay of inhibition of the p53-MDM2 interaction (GST-MDM2 / biotinylated p53 peptide). It is filed as binding. The conditions noted are these: recombinant GST-tagged MDM2 and biotinylated p53 peptide, bsa:0.02%. (In TR-FRET formats the signal depends on donor and acceptor labels being close together.)
Chain of interaction between p53 and MDM2 proteins (Q00987 whole entry): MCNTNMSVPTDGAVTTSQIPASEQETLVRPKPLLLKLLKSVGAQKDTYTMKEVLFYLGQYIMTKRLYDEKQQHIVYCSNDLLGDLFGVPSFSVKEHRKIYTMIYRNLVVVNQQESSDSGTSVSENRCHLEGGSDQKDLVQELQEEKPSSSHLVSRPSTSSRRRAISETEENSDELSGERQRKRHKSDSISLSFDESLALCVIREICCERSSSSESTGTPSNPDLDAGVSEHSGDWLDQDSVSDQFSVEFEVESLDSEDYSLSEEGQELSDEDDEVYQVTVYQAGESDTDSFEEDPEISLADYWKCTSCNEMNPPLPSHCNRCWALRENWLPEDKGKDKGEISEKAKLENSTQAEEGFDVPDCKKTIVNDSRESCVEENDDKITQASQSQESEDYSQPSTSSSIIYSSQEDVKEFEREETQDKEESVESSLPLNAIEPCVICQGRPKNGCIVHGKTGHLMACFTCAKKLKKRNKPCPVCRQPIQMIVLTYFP
By IC50 is commonly meant the concentration needed to halve the response being measured. On to `COc1cc(C(N)=O)ccc1NC(=O)[C@@H]1N[C@@H](CC(C)(C)C)[C@@]2(C(=O)Nc3cc(Cl)ccc32)[C@H]1c1cc(F)cc(Cl)c1` (racemic) [Example 115, rac-(2′S,3′R,4′R,5′R)-6-chloro-4′-(3-chloro-5-fluoro-phenyl)-2′-(2,2-dimethyl-propyl)-2-oxo-1,2-dihydro-spiro[indole-3,3′-pyrrolidine]-5′-carboxylic acid (4-carbamoyl-2-methoxy-phenyl)-amide], for which the IC50 amounted to 6 nM.

`CC(C)(CO)C[C@@H]1N[C@@H](C(=O)Nc2ccc(C(N)=O)cc2)[C@H](c2cccc(Cl)c2F)[C@]12C(=O)Nc1cc(Cl)ccc12` (racemic) [Example 106, rac-(2′S,3′R,4′S,5′R)-6-chloro-4′-(3-chloro-2-fluoro-phenyl)-2′-(3-hydroxy-2,2-dimethyl-propyl)-2-oxo-1,2-dihydro-spiro[indole-3,3′-pyrrolidine]-5′-carboxylic acid (4-carbamoyl-phenyl)-amide]: the 50% inhibitory concentration (IC50) stood at 9 nM.

For the compound `CC(C)(C)C[C@@H]1N[C@@H](C(=O)Nc2ccc(S(C)(=O)=O)cc2)[C@H](c2cccc(Cl)c2F)[C@]12C(=O)Nc1cc(Cl)ccc12` (racemic) [Example 10, rac-(2′S,3′R,4′S,5′R)-6-chloro-4′-(3-chloro-2-fluoro-phenyl)-2′-(2,2-dimethyl-propyl)-2-oxo-1,2-dihydro-spiro[indole-3,3′-pyrrolidine]-5′-carboxylic acid (4-methanesulfonyl-phenyl)-amide], the IC50 was 13 nM.

In the case of `COc1cc(C(=O)O)ccc1NC(=O)[C@@H]1N[C@@H](CC(C)(C)C)[C@@]2(C(=O)Nc3cc(Br)ccc32)[C@H]1c1cccc(Cl)c1F` (racemic) [Example 123, rac-4-{[(2′S,3′R,4′S,5′R)-6-bromo-4′-(3-chloro-2-fluoro-phenyl)-2′-(2,2-dimethyl-propyl)-2-oxo-1,2-dihydro-spiro[indole-3,3′-pyrrolidine]-5′-carbonyl]-amino}-3-methoxy-benzoic acid], the IC50 was 6 nM.

As for `CC(C)(C)C[C@@H]1N[C@@H](C(=O)Nc2nc(C(N)=O)cs2)[C@H](c2cccc(Cl)c2F)[C@]12C(=O)Nc1cc(Cl)ccc12` (racemic) [Example 198, rac-(2′S,3′R,4′S,5′R)-6-chloro-4′-(3-chloro-2-fluoro-phenyl)-2′-(2,2-dimethyl-propyl)-2-oxo-1,2-dihydro-spiro[indole-3,3′-pyrrolidine]-5′-carboxylic acid (4-carbamoyl-thiazol-2-yl)-amide], the IC50 is 12 nM.

As for `COc1cc(NC(=O)[C@@H]2N[C@@H](CC(C)(C)C)[C@@]3(C(=O)Nc4cc(Cl)ccc43)[C@H]2c2cccc(Cl)c2F)ccc1C(N)=O` [Example 23, chiral (2′S,3′R,4′S,5′R)-6-chloro-4′-(3-chloro-2-fluoro-phenyl)-2′-(2,2-dimethyl-propyl)-2-oxo-1,2-dihydro-spiro[indole-3,3′-pyrrolidine]-5′-carboxylic acid (4-carbamoyl-3-methoxy-phenyl)-amide], the IC50 was 5 nM.

With `CC(C)(C)C[C@@H]1N[C@@H](C(=O)Nc2ccc(OCC(N)=O)cc2)[C@H](c2cccc(Cl)c2F)[C@]12C(=O)Nc1cc(Cl)ccc12` (racemic) [Example 210, rac-(2′S,3′R,4′S,5′R)-6-chloro-4′-(3-chloro-2-fluoro-phenyl)-2′-(2,2-dimethyl-propyl)-2-oxo-1,2-dihydro-spiro[indole-3,3′-pyrrolidine]-5′-carboxylic acid (4-carbamoylmethoxy-phenyl)-amide], the IC50 was determined as 15 nM.

Regarding `CC(C)(C)C[C@@H]1N[C@@H](C(=O)Nc2ccc(CC(=O)O)cc2)[C@H](c2cccc(Cl)c2F)[C@]12C(=O)Nc1cc(Cl)ccc12` (racemic) [Example 220, rac-(4-{[(2′S,3′R,4′S,5′R)-6-chloro-4′-(3-chloro-2-fluoro-phenyl)-2′-(2,2-dimethyl-propyl)-2-oxo-1,2-dihydro-spiro[indole-3,3′-pyrrolidine]-5′-carbonyl]-amino}-phenyl)-acetic acid], the IC50 was 15 nM.

Turning to `CC(C)(C)C[C@@H]1N[C@@H](C(=O)Nc2ccc(Cl)cc2)[C@H](c2cccc(Cl)c2F)[C@]12C(=O)Nc1cc(Cl)ccc12` (racemic) [Example 21, rac-(2′S,3′R,4′S,5′R)-6-chloro-4′-(3-chloro-2-fluoro-phenyl)-2′-(2,2-dimethyl-propyl)-2-oxo-1,2-dihydro-spiro[indole-3,3′-pyrrolidine]-5′-carboxylic acid (4-chloro-phenyl)-amide], the IC50 is 19 nM.

For `COc1cc(OCC[S+](C)[O-])ccc1NC(=O)[C@@H]1N[C@@H](CC(C)(C)C)[C@@]2(C(=O)Nc3cc(Cl)ccc32)[C@H]1c1cccc(Cl)c1F` (single isomer, unassigned) [Example 171, chiral (2′S,3′R,4′S,5′R)-6-chloro-4′-(3-chloro-2-fluoro-phenyl)-2′-(2,2-dimethyl-propyl)-2-oxo-1,2-dihydro-spiro[indole-3,3′-pyrrolidine]-5′-carboxylic acid [4-(2-methanesulfinyl-ethoxy)-2-methoxy-phenyl]-amide], the IC50 was 6 nM.

For the compound `CC(=O)c1ccc(NC(=O)[C@@H]2N[C@@H](CC(C)(C)C)[C@@]3(C(=O)Nc4cc(Cl)ccc43)[C@H]2c2cccc(Cl)c2F)cc1` (racemic) [Example 11, rac-(2′S,3′R,4′S,5′R)-6-chloro-4′-(3-chloro-2-fluoro-phenyl)-2′-(2,2-dimethyl-propyl)-2-oxo-1,2-dihydro-spiro[indole-3,3′-pyrrolidine]-5′-carboxylic acid (4-acetyl-phenyl)-amide], the IC50 was found to be 13 nM.

Take `CCOc1cc(C(=O)OC)ccc1NC(=O)[C@@H]1N[C@@H](CC(C)(C)C)[C@@]2(C(=O)Nc3cc(Cl)ccc32)[C@H]1c1cccc(Cl)c1F` (racemic) [Example 129, rac-4-{[(2′S,3′R,4′S,5′R)-6-chloro-4′-(3-chloro-2-fluoro-phenyl)-2′-(2,2-dimethyl-propyl)-2-oxo-1,2-dihydro-spiro[indole-3,3′-pyrrolidine]-5′-carbonyl]-amino}-3-ethoxy-benzoic acid methyl ester]: the IC50 is 10 nM.

Regarding `COc1cc(OCCO)ccc1NC(=O)[C@@H]1N[C@@H](CC(C)(C)C)[C@@]2(C(=O)Nc3cc(Cl)ccc32)[C@H]1c1cccc(Cl)c1F` [Example 134, chiral (2′S,3′R,4′S,5′R)-6-chloro-4′-(3-chloro-2-fluoro-phenyl)-2′-(2,2-dimethyl-propyl)-2-oxo-1,2-dihydro-spiro[indole-3,3′-pyrrolidine]-5′-carboxylic acid [4-(2-hydroxy-ethoxy)-2-methoxy-phenyl]-amide], the IC50 stood at 5 nM.

Consider `Cn1ccc(NC(=O)[C@@H]2N[C@@H](CC(C)(C)C)[C@@]3(C(=O)Nc4cc(Cl)ccc43)[C@H]2c2cccc(Cl)c2F)cc1=O` (racemic) [Example 27, rac-(2′S,3′R,4′S,5′R)-6-chloro-4′-(3-chloro-2-fluoro-phenyl)-2′-(2,2-dimethyl-propyl)-2-oxo-1,2-dihydro-spiro[indole-3,3′-pyrrolidine]-5′-carboxylic acid (1-methyl-2-oxo-1,2-dihydro-pyridin-4-yl)-amide], for which the IC50 is 17 nM.

For the compound `COc1cc(-n2cnnn2)ccc1NC(=O)[C@@H]1N[C@@H](CC(C)(C)C)[C@@]2(C(=O)Nc3cc(Cl)ccc32)[C@H]1c1cccc(Cl)c1F` (racemic) [Example 153, rac-(2′S,3′R,4′S,5′R)-6-chloro-4′-(3-chloro-2-fluoro-phenyl)-2′-(2,2-dimethyl-propyl)-2-oxo-1,2-dihydro-spiro[indole-3,3′-pyrrolidine]-5′-carboxylic acid (2-methoxy-4-tetrazol-1-yl-phenyl)-amide], the IC50 worked out at 8 nM.

Take `CC(C)(C)C[C@@H]1N[C@@H](C(=O)Nc2ccc(C(N)=O)cc2)[C@H](c2ccc(F)c(Cl)c2)[C@]12C(=O)Nc1cc(Cl)ccc12` (racemic) [Example 84, rac-(2′S,3′R,4′R,5′R)-6-chloro-4′-(3-chloro-4-fluoro-phenyl)-2′-(2,2-dimethyl-propyl)-2-oxo-1,2-dihydro-spiro[indole-3,3′-pyrrolidine]-5′-carboxylic acid (4-carbamoyl-phenyl)-amide]: the IC50 is 15 nM.

As for `CCOC(=O)CNc1ccc(NC(=O)[C@@H]2N[C@@H](CC(C)(C)C)[C@@]3(C(=O)Nc4cc(Cl)ccc43)[C@H]2c2cccc(Cl)c2F)cc1` (racemic) [Example 217, rac-(4-{[(2′S,3′R,4′S,5′R)-6-chloro-4′-(3-chloro-2-fluoro-phenyl)-2′-(2,2-dimethyl-propyl)-2-oxo-1,2-dihydro-spiro[indole-3,3′-pyrrolidine]-5′-carbonyl]-amino}-phenylamino)-acetic acid ethyl ester], the IC50 was found to be 13 nM.

For `CC(C)(C)C[C@@H]1N[C@@H](C(=O)Nc2cnc(C(N)=O)nc2)[C@H](c2cccc(Cl)c2F)[C@]12C(=O)Nc1cc(Cl)ccc12` (racemic) [Example 185, rac-(2′S,3′R,4′S,5′R)-6-chloro-4′-(3-chloro-2-fluoro-phenyl)-2′-(2,2-dimethyl-propyl)-2-oxo-1,2-dihydro-spiro[indole-3,3′-pyrrolidine]-5′-carboxylic acid (2-carbamoyl-pyrimidin-5-yl)-amide], the IC50 was determined as 16 nM.

Turning to `CC(C)(C)C[C@@H]1N[C@@H](C(=O)Nc2ccc(C(N)=O)cc2)[C@H](c2cccc(Cl)c2F)[C@]12C(=O)Nc1cc(Cl)cc(F)c12` [Example 74, chiral (2′S,3′R,4′S,5′R)-6-chloro-4′-(3-chloro-2-fluoro-phenyl)-2′-(2,2-dimethyl-propyl)-4-fluoro-2-oxo-1,2-dihydro-spiro[indole-3,3′-pyrrolidine]-5′-carboxylic acid (4-carbamoyl-phenyl)-amide], the IC50 came to 6 nM.

Regarding `COc1cc(CC(=O)OC(C)(C)C)ccc1NC(=O)[C@@H]1N[C@@H](CC(C)(C)C)[C@@]2(C(=O)Nc3cc(Cl)ccc32)[C@H]1c1cccc(Cl)c1F` [Example 159, chiral (4-{[(2′S,3′R,4′S,5′R)-6-chloro-4′-(3-chloro-2-fluoro-phenyl)-2′-(2,2-dimethyl-propyl)-2-oxo-1,2-dihydro-spiro[indole-3,3′-pyrrolidine]-5′-carbonyl]amino}-3-methoxy-phenyl)-acetic acid tert-butyl ester], the IC50 stood at 14 nM.
